The values below come from ChEMBL document CHEMBL1201862, “PubChem BioAssay data set” (2004).

Among the test systems are HCT-15; SK-MEL-2; U-251; HOP-62; SW-620; SNB-75; OVCAR-3; NCI-H23; SK-MEL-5; TK-10; OVCAR-4; LXFL 529; Malme-3M; CCRF-CEM; HCT-116; HOP-92; SR; NCI-H522; RXF 393; NCI/ADR-RES.
Holding throughout (assay): NCI tumour cell line growth inhibition, 48 h

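Each compound was tested at five concentrations against cells in 96-well plates for 48 hours. GI50 = concentration required for 50% inhibition of growth.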 The source made the active and inactive calls. No stated cut-off is given here; in the data, active = GI50 up to about 1.1 µM and inactive = higher.

With `CCc1cccc(C(C)CC)c1NC(=O)CC1C(=O)Nc2ccccc2S1(=O)=O` (stereo not drawn), the GI50 with HCT-15 is 13.3 µM; with SK-MEL-2, 64.6 µM (inactive); in the experiment with U-251 it was 40.3 µM (inactive); in the experiment with HOP-62, 36.8 µM (inactive); in the experiment with SW-620 it was 8.61 µM (inactive); in the experiment on SNB-75 it was 14.8 µM (inactive). The GI50 in the experiment with OVCAR-3 was 13.6 µM (inactive); with NCI-H23, 7.45 µM (inactive); in the experiment with SK-MEL-5, 45.9 µM (inactive); with TK-10 it was 28.7 µM (inactive); in the experiment with OVCAR-4, 12.8 µM (inactive); in the experiment on LXFL 529 it was 11.2 µM (inactive). Moreover, the results for the GI50 in the experiment on Malme-3M and in the experiment on CCRF-CEM were 36.5 µM (inactive) and 5.22 µM (inactive), respectively.
Consider `O=C(c1ccncc1)n1nc(-c2ccccc2)c(/N=N/c2ccc([N+](=O)[O-])cc2)c1-c1ccccc1`, for which the GI50 with HCT-116 is 73.6 µM (inactive); with SK-MEL-2, 77.8 µM (inactive); in the experiment with HOP-92, 27.5 µM (inactive); in the experiment with HOP-62, 39.4 µM (inactive); with SW-620, > 100 µM (inactive); with SNB-75, 12.6 µM (inactive). The GI50 was 50.9 µM (inactive) in the experiment with OVCAR-3; 22.6 µM (inactive) with NCI-H23; 27.3 µM (inactive) with SK-MEL-5; 57.8 µM (inactive) in the experiment on TK-10; 15 µM (inactive) in the experiment on OVCAR-4; 13.1 µM (inactive) in the experiment with LXFL 529. In addition, the GI50 is 45.3 µM (inactive) in the experiment on SR, 90.6 µM (inactive) in the experiment on Malme-3M, 66.7 µM (inactive) with NCI-H522 and > 10 µM (inactive) with CCRF-CEM.
Consider `O=C1CCC(Cl)=CC2CCCN12` (stereo not drawn), for which the GI50 with HCT-116 was > 100 µM (inactive); with HCT-15 it was more than 100 µM; in the experiment on SK-MEL-2, > 100 µM (inactive); in the experiment on HOP-92, > 100 µM (inactive); in the experiment on U-251 it was > 100 µM (inactive); with HOP-62, > 100 µM (inactive). In addition, the GI50 in the experiment on SW-620, in the experiment on SNB-75, in the experiment with NCI-H23, in the experiment with SK-MEL-5, in the experiment on TK-10 and with RXF 393 was > 100 µM (inactive) each time. In addition, the GI50 with LXFL 529 was > 100 µM (inactive); with Malme-3M, > 100 µM (inactive); with CCRF-CEM, > 10 µM (inactive).
Regarding `COCOC1/C=C/CCCCC2=C(C)C=C(C1)O2` (stereo not drawn), the GI50 with HCT-116 is > 100 µM (inactive); with NCI/ADR-RES, > 100 µM (inactive); with HCT-15, more than 100 µM; with SK-MEL-2, > 100 µM (inactive); in the experiment on HOP-92, > 100 µM (inactive); in the experiment on U-251, > 100 µM (inactive). The GI50 with HOP-62, in the experiment on SW-620, in the experiment on SNB-75, with OVCAR-3, in the experiment with NCI-H23 and in the experiment with SK-MEL-5 was > 100 µM (inactive) each time. Moreover, the GI50 in the experiment with TK-10, in the experiment on OVCAR-4, with RXF 393, in the experiment on SR, in the experiment on Malme-3M and with NCI-H522 was > 100 µM (inactive) each time. Also, in the experiment on CCRF-CEM, the GI50 is > 100 µM (inactive).
Take `Cc1ccc(S(=O)(=O)N2CCNCCN(S(=O)(=O)c3ccc(C)cc3)CCN(S(=O)(=O)c3ccc(C)cc3)CC2)cc1`: the GI50 with HCT-116 was > 100 µM (inactive); in the experiment on NCI/ADR-RES it was > 100 µM (inactive); in the experiment on HCT-15, more than 100 µM; in the experiment with SK-MEL-2, > 100 µM (inactive); with HOP-92, 70.8 µM (inactive); in the experiment on U-251, > 100 µM (inactive). Also, the GI50 in the experiment with HOP-62 is > 100 µM (inactive); in the experiment on SW-620 it was > 100 µM (inactive); in the experiment on SNB-75 it was 54.3 µM (inactive); in the experiment on OVCAR-3, > 100 µM (inactive); with NCI-H23, > 100 µM (inactive); in the experiment on SK-MEL-5, > 100 µM (inactive). In addition, the GI50 in the experiment with TK-10, in the experiment with OVCAR-4, with RXF 393, in the experiment with SR, in the experiment on Malme-3M and with NCI-H522 was > 100 µM (inactive) each time. In addition, the GI50 in the experiment on CCRF-CEM is > 100 µM (inactive).
As for `C=CCNC(=S)OCCCCCCCCCC`, the GI50 in the experiment on HCT-116 is 16.9 µM (inactive); in the experiment with HCT-15, 15.8 µM; in the experiment on SK-MEL-2, 12.3 µM (inactive); in the experiment on U-251 it was 16.7 µM (inactive); with HOP-62, 21.7 µM (inactive); in the experiment with SW-620, 18.7 µM (inactive). In addition, the GI50 in the experiment on SNB-75 was 23.6 µM (inactive); in the experiment on NCI-H23 it was 19.8 µM (inactive); in the experiment on SK-MEL-5, 16.7 µM (inactive); in the experiment on TK-10, 11.7 µM (inactive); with OVCAR-4, 16.5 µM (inactive); in the experiment with RXF 393, 15.5 µM (inactive). Besides, the GI50 was 14.9 µM (inactive) in the experiment on LXFL 529, 20.9 µM (inactive) with SR, 19.6 µM (inactive) in the experiment with Malme-3M and 15.7 µM (inactive) in the experiment with CCRF-CEM.
`CC(=O)OCC1OC(N=[N+]=[N-])C(OC(C)=O)C(OC(C)=O)C1OC1OC(COC(C)=O)C(OC(C)=O)C(OC(C)=O)C1OC(C)=O` (stereo not drawn): the GI50 was more than 100 µM in the experiment with HCT-15; > 100 µM (inactive) in the experiment with SK-MEL-2; > 100 µM (inactive) with U-251; > 100 µM (inactive) in the experiment on SW-620; 20.5 µM (inactive) with SNB-75; > 100 µM (inactive) in the experiment with OVCAR-3. Besides, the GI50 in the experiment with NCI-H23 is > 100 µM (inactive); in the experiment on SK-MEL-5, > 100 µM (inactive); in the experiment with TK-10, 81.5 µM (inactive); with OVCAR-4, > 100 µM (inactive); in the experiment on RXF 393, 35.7 µM (inactive); with LXFL 529, > 100 µM (inactive). For the same molecule, the GI50 with Malme-3M, with NCI-H522 and in the experiment with CCRF-CEM was > 100 µM (inactive) each time.
With `CN1CCc2c1nc(-c1ccccc1)c1c2N(C)CC1`, the GI50 is 28.1 µM (inactive) in the experiment with HCT-116; 66.4 µM with HCT-15; > 100 µM (inactive) in the experiment with SK-MEL-2; 29.7 µM (inactive) in the experiment with HOP-92; > 100 µM (inactive) in the experiment on U-251; 43.8 µM (inactive) in the experiment on HOP-62. Further, the GI50 in the experiment with SW-620 was 86.9 µM (inactive); with SNB-75, > 100 µM (inactive); with OVCAR-3, 21.4 µM (inactive); in the experiment on NCI-H23, 55.7 µM (inactive); in the experiment with SK-MEL-5, 36.1 µM (inactive); with TK-10, > 100 µM (inactive). In addition, the GI50 in the experiment with OVCAR-4 is 57 µM (inactive); in the experiment with RXF 393 it was 43.9 µM (inactive); with LXFL 529, 52.2 µM (inactive); in the experiment on Malme-3M, 91.4 µM (inactive); in the experiment on CCRF-CEM it was 60.5 µM (inactive).
For `FC(F)(F)c1cccc2ns[s+]c12`, the GI50 in the experiment on HCT-116, in the experiment with SK-MEL-2, in the experiment with U-251, in the experiment on HOP-62, in the experiment on SW-620 and with SNB-75 was > 100 µM (inactive) in each case. In addition, the GI50 in the experiment with OVCAR-3 is > 100 µM (inactive); in the experiment on NCI-H23, > 100 µM (inactive); in the experiment on SK-MEL-5, 69.8 µM (inactive); in the experiment on TK-10, > 100 µM (inactive); in the experiment on OVCAR-4, > 100 µM (inactive); in the experiment on RXF 393, > 100 µM (inactive). Further, the GI50 in the experiment with LXFL 529, in the experiment on SR, in the experiment on Malme-3M, with NCI-H522 and with CCRF-CEM was > 100 µM (inactive) in each case.
Turning to `COc1cc(N(CCC#N)CCC#N)ccc1C(=N/NC(=O)c1cc(Br)ccc1O)/N=N/c1ccccc1`, the GI50 with HCT-116 is 21.5 µM (inactive); in the experiment on NCI/ADR-RES, 32.5 µM (inactive); in the experiment on HCT-15, 24.7 µM; in the experiment with SK-MEL-2 it was 26.7 µM (inactive); with HOP-92, 24.3 µM (inactive); in the experiment on U-251, 32.1 µM (inactive). The GI50 is 24 µM (inactive) in the experiment on HOP-62; 31.6 µM (inactive) in the experiment on SW-620; 27.7 µM (inactive) in the experiment with SNB-75; 22 µM (inactive) in the experiment on OVCAR-3; 21.4 µM (inactive) in the experiment with NCI-H23; 20.1 µM (inactive) with SK-MEL-5. Moreover, the GI50 with TK-10 is 33.1 µM (inactive); with OVCAR-4, 19.6 µM (inactive); in the experiment with RXF 393, 26.4 µM (inactive); in the experiment on SR, 16.9 µM (inactive); in the experiment on Malme-3M, 31.7 µM (inactive); with NCI-H522 it was 23.4 µM (inactive). The GI50 with CCRF-CEM is 8.45 µM (inactive).
For the molecule `CCCCCCCCCCCCCCCCCCCCCCC(=O)N[C@H]1CCc2cc(OC)c(OC)c(OC)c2-c2ccc(SC)c(=O)cc21`, the GI50 in the experiment on HCT-116 was 26 µM (inactive); in the experiment with HCT-15, 26.4 µM; in the experiment with HOP-92, 34.4 µM (inactive); in the experiment on U-251, 24.2 µM (inactive); with HOP-62, 16.1 µM (inactive); in the experiment with SW-620, 30.3 µM (inactive). Further, the GI50 is 20.2 µM (inactive) in the experiment with SNB-75; 24.2 µM (inactive) in the experiment on OVCAR-3; 25.5 µM (inactive) in the experiment on NCI-H23; 28.4 µM (inactive) with SK-MEL-5; 40.1 µM (inactive) with TK-10; > 100 µM (inactive) in the experiment with OVCAR-4. The GI50 in the experiment with LXFL 529 was 41.9 µM (inactive); in the experiment on SR, 23.5 µM (inactive); with Malme-3M it was 51.5 µM (inactive); in the experiment with NCI-H522, 13.4 µM (inactive); with CCRF-CEM, 30.1 µM (inactive).
With `COc1cccc(O)c1-c1cc(=O)c2c(O)c(OC)c(OC)c(OC)c2o1` [SKULLCAPFLAVONE II], the GI50 is 32.1 µM (inactive) in the experiment with HCT-116; 21.8 µM (inactive) in the experiment on NCI/ADR-RES; 18.5 µM with HCT-15; 20.9 µM (inactive) in the experiment with SK-MEL-2; 22.1 µM (inactive) in the experiment with HOP-92; 31.6 µM (inactive) in the experiment on U-251. Also, the GI50 in the experiment with HOP-62 was 17.5 µM (inactive); in the experiment on SW-620 it was 31.8 µM (inactive); in the experiment on SNB-75, 23 µM (inactive); with OVCAR-3, 22.5 µM (inactive); in the experiment with NCI-H23 it was 24.9 µM (inactive); in the experiment with SK-MEL-5, 19 µM (inactive). Further, the GI50 in the experiment on TK-10 was 44.8 µM (inactive); with OVCAR-4, 30.3 µM (inactive); with RXF 393 it was 14.1 µM (inactive); with SR it was 4.82 µM (inactive); in the experiment on Malme-3M, 36.4 µM (inactive); in the experiment on NCI-H522 it was 22.7 µM (inactive). For the same molecule, the GI50 with CCRF-CEM is 34.5 µM (inactive).
